Reference: a melting point compilation (Tetko et al.; mined from patent text by program, amines drawn as free bases though some values may be those of a salt)

Structure (SMILES)	melting point [°C]
Cc1ccc(-c2cc(CNc3cc(CNc4cc(-c5ccc(C)cc5)[nH]n4)n[nH]3)n[nH]2)cc1	167
COC(=O)c1cc2c(cc(C=O)c3ccccc32)s1	196 to 198
O=c1oc2ccccc2c(O)c1SCCOc1ccccc1	120 to 121
NS(=O)(=O)c1ccc(-c2c(COCCCO)n[nH]c2-c2ccc(Cl)cc2)cc1	96
COC(=O)C(C)N(C(=O)CS)c1c(C)cccc1C (configuration not stated)	62.5 to 63
CC(C)(C)CC(NC(=O)c1ccc(Cl)cc1)NC(=NC#N)Nc1cccnc1 (configuration not stated)	181 to 183
O=C(Oc1ccc(F)cc1)c1ccccc1	48 to 50
Cc1ccccc1-c1nc2n(c1-c1ccc(C3(NC(=O)OC(C)(C)C)CCC3)c(F)c1)-c1cccnc1Nc1ccccc1-2	138 to 140
O=C(O)Cc1ccc2c(c1)C(=O)Cc1cccnc1S2	212 to 214
CCC(COCc1cccc(Cl)c1)n1cnc2c(N)nc3ccccc3c21 (configuration not stated)	60 to 62
CCOCCc1cc(C)c(OCC=NO)cc1C	66 to 70
Nc1cccc(-c2cc(NC(=O)c3cccs3)nc(-c3ccccc3O)c2)c1	161 to 162
c1csc(NCCc2c[nH]cn2)n1	198 to 199
COc1ccc(C(=O)O)c(Cl)c1Cl	224 to 226
CN(c1cccc2cc(-c3ncc(CCC(=O)NS(C)(=O)=O)s3)[nH]c12)S(=O)(=O)c1cccs1	217 to 218
Cc1cc(C)c(Nc2nc(C)ncc2S(=O)(=O)c2ccc(F)cc2)c(C)c1	191 to 193
CCOC(=O)c1csc(-c2cc3cccc(NS(=O)(=O)c4cccs4)c3[nH]2)n1	240 to 241
CCOC(=O)C(=NOC)C1=CSCCO1	64 to 66
Cc1cc(C(=O)N(C)CCO)ncc1C(c1cc(F)ccc1F)S(=O)(=O)c1ccc(F)cc1 (configuration not stated)	123 to 125
Nc1cc2c(Nc3ccc(Br)c(Br)c3)ncnc2cn1	265 to 268
CCCCc1nc(C(=O)CCC)c(C#N)[nH]1	91 to 92
CC(Br)c1ccc2c(-c3ccccc3)onc2c1 (configuration not stated)	99 to 102
CCOC(=O)C(Cc1ccc(NCc2ccc3cc(OS(C)(=O)=O)ccc3c2)cc1)OC (configuration not stated)	94 to 96
CC(C)(C)C(=O)Oc1ccc(C(=O)CBr)cc1OC(=O)C(C)(C)C	64 to 66
CCC(Oc1ccc(C(C)(C)CC)cc1C(C)(C)CC)C(=O)Nc1cc(OC(C)=O)c(C)c(Cl)c1O (configuration not stated)	188 to 190
C[C@]12CCC(=O)N[C@@H]1CCc1cc(Sc3ccc4ccccc4n3)ccc12	220 to 222

Structure (SMILES)	melting point [°C]
CCN1c2ccc(C)cc2C2CN(CCCC(=O)c3ccc(F)cc3)CCC21 (configuration not stated)	150 to 153
CCn1nnc(NC(=O)C(c2ccccc2)c2ccccc2)n1	169 to 170
COC(=O)[C@H](Cc1ccccc1)NC(=S)Cc1cc(C)ccc1C	63.5 to 64
C=Cc1c(N)nc(-c2ccc(C)cc2)nc1C(=O)OC	122 to 123
Nc1ncc2cc(-c3c(Cl)ccc(Cl)c3Cl)c(N)nc2n1	320 to 322
Cc1ccc(C(=O)c2cc(-c3ccc(Cl)cc3)c(N3CCOCC3)s2)cc1	190
O=c1[nH]c(=S)[nH]cc1Cc1cccc(Cl)c1	192 to 195
COc1ccc(C(=O)Cc2cccc(C(F)(F)F)c2)cc1	94 to 95
COC(=O)C1(C(F)CCCCOc2ccc(Cl)cc2)CO1 (configuration not stated)	76 to 78
CC(=O)OCCN1CCN(C(=O)Cn2c(=O)sc3ncc(Cl)cc32)CC1	153 to 155
CCc1c(C=O)c2ccc(C(N)=O)cc2n1Cc1ccccc1Cl	260 to 261
Cc1cc([N+](=O)[O-])c(NC(C)C(=O)N(C)OS(C)(=O)=O)c([N+](=O)[O-])c1 (configuration not stated)	145
CC(C)(C)Nc1nc(-c2ccc(F)cc2)c(-c2ccc(S(C)(=O)=O)cc2)s1	250 to 253
FC(F)(F)C(=Cc1ccccc1)c1ccc(Cl)cc1	63 to 66
CCC(C)N(C)C(=O)c1cc(-c2ccccc2)c2ccsc2c1 (configuration not stated)	84
CCCCCCCCCCOc1ccc(C(=O)C=O)cc1	81 to 83
CCN(CC)S(=O)(=O)c1cc(C)c2c(c1)S(=O)(=O)NC(C1CCCCC1)=N2	206 to 208
COc1c(C)c(C(=O)c2ccc([N+](=O)[O-])cc2)n2ccccc12	151
Fc1ncccc1-c1cscc1Br	48 to 50
O=C(Nc1ccc(N2CCN(C(=O)Nc3ccc(OCCO)cc3C(F)(F)F)CC2)cc1)Nc1nc(C2CC2)cs1	120 to 123
CC(=O)Nc1cc(F)cc2c1OCCC21SC(=O)NC1=O (configuration not stated)	278 to 280
CC12C=CC(O)CC1CCC1C2CCC2(C)C(C#N)CCC12 (configuration not stated)	129 to 133
Cc1nc2c(O[C@@H]3c4ccccc4C[C@H]3O)cc(C(=O)N(C)C)cn2c1C (relative stereo)	122
CC(c1cccc(-c2c[nH]nn2)c1)C(O)(Cn1cncn1)c1ccc(F)cc1F (configuration not stated)	168 to 170
CC(O)=C(C#N)C(=O)Nc1ccc(OC(F)(F)F)cc1	171 to 176
CN(Cc1ccc(C(=O)Cn2cnc3cc(-c4ccc(Cl)cc4)sc3c2=O)cc1)C(=O)C(F)(F)F	235 to 238

Structure (SMILES)	melting point [°C]
O=C(N[C@@H]1C(=O)N[C@@H]1C=Cc1ccccc1)OCc1ccccc1	201 to 204
COCCOc1ccc(CCCOc2cc(CCC(=O)O)n(C)n2)c(OCc2ccc(Cl)cc2Cl)c1	128 to 130
CS(=O)(=O)c1ccc(-n2nc(C(F)(F)F)cc2-c2ccc(-c3ccco3)cc2)cc1	196
CC(=O)Nc1ccc(NC(=NC#N)Oc2ccccc2)cn1	194
CC(CC#N)n1nnc2cc3c(=O)n(C4CC4)nnc3cc2c1=O (configuration not stated)	240 to 242
COc1cc2c(c3c1OC(C)(C)C3)C(c1cccc(C(=O)NC3CCNC3=O)c1)=NC(C)(C)C2 (configuration not stated)	191 to 193
N#Cc1cc(Cl)cc(CO)c1	110 to 111
COc1cc(C2CCN(CC(N)=O)CC2)ccc1Nc1ncc2ccc(-c3ccccc3N(C)S(C)(=O)=O)n2n1	103 to 112
C=CCOc1cc(=O)n(-c2ccccc2)c2ncccc12	171 to 174
OC1Sc2ccccc2-c2ccccc21 (configuration not stated)	83 to 86
COC(=O)Cc1ccc2nc(C(F)(F)F)cc(O)c2c1	192 to 193
CCCN(CCC)C(=O)Cn1c(=O)[nH]c2cnc(-c3ccccc3)nc21	190 to 191
O=C(O)[C@@H]1CSC(c2ccccc2O)N1C(=O)CCS (some centres not stated)	146 to 148
N#Cc1ccccc1N1CCN(CNC(=O)c2cccc(Cl)c2)CC1	143 to 146
Cc1ccccc1CCc1nc2cc(Cl)c(S(N)(=O)=O)cc2[nH]1	205 to 208
O=C1C(=O)c2ccccc2C2=C1SCC1(CCN(CCCCc3ccccc3)CC1)O2	145 to 147
CC(C)(C)OC(=O)C=C(c1ccc(C#N)s1)n1ccnc1	90 to 91
CC(C)(C)c1ccc(OP(Oc2ccc(C(C)(C)C)cc2C(C)(C)C)Oc2ccc(C(C)(C)C)cc2C(C)(C)C)c(C(C)(C)C)c1	181 to 186
CCCc1nc2c(N)nc(C)c(C)c2n1CCCCS(=O)(=O)N(C)C	127 to 128
COc1ccc2c(=O)c(-c3ccc(OCC(O)CNC4CCCCC4)cc3)coc2c1 (configuration not stated)	125 to 126
CCN1Cc2ccc(Cl)cc2-c2c(C(=O)N3CCOCC3)cc(-c3ccccc3)c(=O)n21	288 to 289
O=C(NCc1ccc(F)cc1)c1cccc(C(=O)NCc2ccc(F)cc2)c1	190 to 191
Nc1ccc2c(c1)CC(NS(=O)(=O)c1ccccc1)C2 (configuration not stated)	105 to 107
CC(N)CC(=O)Nc1ccc(Nc2ccccc2)cc1 (configuration not stated)	130 to 132
COc1ccc(Cn2nnnc2C(=O)Nc2cc(Cl)cc(NC(=O)c3nnnn3Cc3ccc(OC)cc3)n2)cc1	201 to 203
BrCCc1ccc2c(c1)CCO2	60 to 62

Structure (SMILES)	melting point [°C]
CC(C)(C)OC(=O)NS(=O)(=O)c1ccc(Br)cc1	127 to 128
O=c1c2cccnc2n(-c2cccc([N+](=O)[O-])c2)c(=O)n1CC(F)(F)F	228 to 229
CCC1(Cl)Cc2cc(OCC(=O)O)c(Cl)c(Cl)c2C1=O (configuration not stated)	185 to 187
COC(=O)C[C@H]1COS(=O)(=O)N1C(=O)OCC1c2ccccc2-c2ccccc21	138 to 140
CN(C)C(=O)CC1CN=C(c2cc3cccc(N(C)S(=O)(=O)c4cccs4)c3[nH]2)S1 (configuration not stated)	153 to 154
O=C(O)CCCC(Nc1ccccc1)c1ccc(Cl)cc1 (configuration not stated)	133 to 134
O=C(O)c1ccc(C(=O)/C=C/c2ccc(F)c(-c3cccs3)c2)cc1	242 to 244
C#CCNC(=O)N1CC(Oc2ccc(Br)cc2)C1	120 to 122
N#Cc1c(Cl)cccc1CBr	83
CC(SC(=O)c1ccccc1)C(=O)NCCC(=O)O (configuration not stated)	94 to 97
CCOC(=O)c1ccccc1CS(=O)(=O)Cl	63 to 64
CCONC(=O)C(=O)NN	182
CN(C)c1ccc(I)nn1	135
COC(=O)c1cc(N=Cc2ccccc2)ccc1O	58 to 59
CN(C)C(=O)c1ccc2c(c1)C(=NNc1ccc(S(N)(=O)=O)cc1)C(=O)N2	> 230
Cn1cc(-c2cc3cccnc3[nH]2)c2cc(C(N)=O)ccc21	330 to 332
COc1ccccc1N1CCN(CCn2cnc3sc4c(c3c2=O)CCNC4)CC1	168 to 170
O=S(=O)(NCCCCOc1ccc(-c2ccncn2)cc1)c1ccc(Br)cc1	131 to 133
CC(=O)Nc1ccn(C2CCC(CO)O2)c(=O)n1 (configuration not stated)	143 to 145
CC(=O)Nc1c(C#N)oc2ccccc12	164 to 167
N#CC1=C(c2ccccc2)Nc2n[nH]cc2C1c1ccccc1[N+](=O)[O-] (configuration not stated)	221
O=C=Nc1c(Cl)cc(Cl)cc1Cl	65 to 66
C[C@@H]1O[C@](/C=C/C2CC2)(C(F)(F)F)c2cc(F)ccc2NC1=O (relative stereo)	180 to 182
CNCC(O)c1ccc(C)o1 (configuration not stated)	40 to 45
